Several values for one entry are separate records, joined by “and”; a condition that tells them apart may be missing. Equal entries are not always repeated.
System: primary acute myeloid leukemia (AML) cells obtained from patients
Assay: Kinase inhibitor library screening with and without NSC130362, primary AML cells
Format: cell-based, Human
Conditions: not given

SMILES	EC50 decrease, fold (Screen N 2)
Cc1ccc(C(=O)Nc2ccc(CN3CCN(C)CC3)c(C(F)(F)F)c2)cc1C#Cc1cnc2cccnn12 [Ponatinib (AP24534)]	0.9 fold and 1.1 fold

Same assay, conditions: ratio of EC50 for inhibitor to EC50 for inhibitor/NSC130362 combination; NSC130362 10 μM; Screen N 1

EC50 decrease, fold (Screen N 1)	SMILES
0.9 fold	CSc1cccc(Nc2ncc3cc(-c4c(Cl)cccc4Cl)c(=O)n(C)c3n2)c1 [PD173955]
1.3 fold	O=C(O)c1ccc(Nc2ncc3c(n2)-c2ccc(Cl)cc2C(c2c(F)cccc2F)=NC3)cc1 [MLN8054]
2.8 fold	C=CC(=O)Nc1cc2c(Nc3ccc(F)c(Cl)c3)ncnc2cc1OCCCN1CCOCC1 [Canertinib (CI-1033)]
1.0 fold	Cc1c[nH]c(-c2cnc(NCCNc3ccc(C#N)cn3)nc2-c2ccc(Cl)cc2Cl)n1 [CHIR-99021]
0.452 fold	Oc1cccc(-c2nc(N3CCOCC3)c3oc4ncccc4c3n2)c1 [PI-103]
15.9 fold	NC1(c2ccc(-c3nc4ccn5c(=O)[nH]nc5c4cc3-c3ccccc3)cc2)CCC1 [MK-2206]
1.1 fold	CN(NC(=O)CC(=O)NN(C)C(=S)c1ccccc1)C(=S)c1ccccc1 [Elesclomol]
6.0 fold	COCCNCc1ccc(-c2cc3nccc(Oc4ccc(NC(=S)NC(=O)Cc5ccc(F)cc5)cc4F)c3s2)nc1 [MGCD-265]
257.7 fold	CNC(=O)c1c(F)cccc1Nc1nc(Nc2cc3c(cc2OC)CCN3C(=O)CN(C)C)nc2[nH]ccc12 [GSK-1838705A]
261.0 fold	Cc1ccc(F)c(NC(=O)Nc2ccc(-c3cccc4[nH]nc(N)c34)cc2)c1 [Linifanib (ABT-869)]
0.245 fold	Clc1ccc(Nc2nnc(Cc3ccncc3)c3ccccc23)cc1 [Vatalanib (PTK787)]
0.2 fold	CCc1nc(C(N)=O)c(Nc2ccc(N3CCC(N4CCN(C)CC4)CC3)c(OC)c2)nc1NC1CCOCC1 [Gilteritinib (ASP-2215)]
0.222 fold	O=c1cc(-c2cccc3c2Sc2ccccc2S3)oc(N2CCOCC2)c1 [KU-55933]
1.0 fold	Cc1ccc(Nc2nccc(N(C)c3ccc4c(C)n(C)nc4c3)n2)cc1S(N)(=O)=O [Pazopanib (GW786034)]
1.0 fold	Cc1ccccc1C(C(=O)NC1CCCCC1)N(C(=O)Cn1ccnc1C)c1cccc(F)c1 (centres unmarked) [AGI-5198]

Same assay, conditions: ratio of EC50 for inhibitor to EC50 for inhibitor/NSC130362 combination; NSC130362 10 μM; Screen N 2

EC50 decrease, fold (Screen N 2)	SMILES
1.0 fold	Cc1ccc2nc(NC(=O)CSc3nc4c(c(=O)n3-c3ccccc3)SCC4)sc2c1 [IWP2]
1.0 fold	CSc1cccc(Nc2ncc3cc(-c4c(Cl)cccc4Cl)c(=O)n(C)c3n2)c1 [PD173955]
0.6 fold	O=C(c1ccc(F)c(F)c1Nc1ccc(I)cc1F)N1CC(O)([C@@H]2CCCCN2)C1 [Combimetinib (GDC-0973)]
1.0 fold	O=C(O)c1ccc(Nc2ncc3c(n2)-c2ccc(Cl)cc2C(c2c(F)cccc2F)=NC3)cc1 [MLN8054]
0.7 fold	C=CC(=O)Nc1cc2c(Nc3ccc(F)c(Cl)c3)ncnc2cc1OCCCN1CCOCC1 [Canertinib (CI-1033)]
1.0 fold	Cc1c[nH]c(-c2cnc(NCCNc3ccc(C#N)cn3)nc2-c2ccc(Cl)cc2Cl)n1 [CHIR-99021]
2.6 fold	Oc1cccc(-c2nc(N3CCOCC3)c3oc4ncccc4c3n2)c1 [PI-103]
1.0 fold	NC1(c2ccc(-c3nc4ccn5c(=O)[nH]nc5c4cc3-c3ccccc3)cc2)CCC1 [MK-2206]
302.2 fold	CN(NC(=O)CC(=O)NN(C)C(=S)c1ccccc1)C(=S)c1ccccc1 [Elesclomol]
1.0 fold	COCCNCc1ccc(-c2cc3nccc(Oc4ccc(NC(=S)NC(=O)Cc5ccc(F)cc5)cc4F)c3s2)nc1 [MGCD-265]
1.0 fold	CNC(=O)c1c(F)cccc1Nc1nc(Nc2cc3c(cc2OC)CCN3C(=O)CN(C)C)nc2[nH]ccc12 [GSK-1838705A]
1.4 fold	Cc1ccc(F)c(NC(=O)Nc2ccc(-c3cccc4[nH]nc(N)c34)cc2)c1 [Linifanib (ABT-869)]
1.0 fold	Clc1ccc(Nc2nnc(Cc3ccncc3)c3ccccc23)cc1 [Vatalanib (PTK787)]
1.0 fold	O=c1cc(-c2cccc3c2Sc2ccccc2S3)oc(N2CCOCC2)c1 [KU-55933]
1.0 fold	Cc1ccc(Nc2nccc(N(C)c3ccc4c(C)n(C)nc4c3)n2)cc1S(N)(=O)=O [Pazopanib (GW786034)]
1.0 fold	Cc1ccccc1C(C(=O)NC1CCCCC1)N(C(=O)Cn1ccnc1C)c1cccc(F)c1 (centres unmarked) [AGI-5198]

Same assay, conditions: ratio of EC50 for inhibitor to EC50 for inhibitor/NSC130362 combination; NSC130362 10 μM; Screen N 3

EC50 decrease, fold (Screen N 3)	SMILES
5.1 fold	CSc1cccc(Nc2ncc3cc(-c4c(Cl)cccc4Cl)c(=O)n(C)c3n2)c1 [PD173955]
0.001 fold	O=C(O)c1ccc(Nc2ncc3c(n2)-c2ccc(Cl)cc2C(c2c(F)cccc2F)=NC3)cc1 [MLN8054]
424.3 fold	C=CC(=O)Nc1cc2c(Nc3ccc(F)c(Cl)c3)ncnc2cc1OCCCN1CCOCC1 [Canertinib (CI-1033)]
1.0 fold	Cc1c[nH]c(-c2cnc(NCCNc3ccc(C#N)cn3)nc2-c2ccc(Cl)cc2Cl)n1 [CHIR-99021]
1089.9 fold	Oc1cccc(-c2nc(N3CCOCC3)c3oc4ncccc4c3n2)c1 [PI-103]
1.0 fold	NC1(c2ccc(-c3nc4ccn5c(=O)[nH]nc5c4cc3-c3ccccc3)cc2)CCC1 [MK-2206]
1.1 fold	CN(NC(=O)CC(=O)NN(C)C(=S)c1ccccc1)C(=S)c1ccccc1 [Elesclomol]
97.6 fold	COCCNCc1ccc(-c2cc3nccc(Oc4ccc(NC(=S)NC(=O)Cc5ccc(F)cc5)cc4F)c3s2)nc1 [MGCD-265]
522.0 fold	CNC(=O)c1c(F)cccc1Nc1nc(Nc2cc3c(cc2OC)CCN3C(=O)CN(C)C)nc2[nH]ccc12 [GSK-1838705A]
1.0 fold	Cc1ccc(F)c(NC(=O)Nc2ccc(-c3cccc4[nH]nc(N)c34)cc2)c1 [Linifanib (ABT-869)]
0.7 fold	Clc1ccc(Nc2nnc(Cc3ccncc3)c3ccccc23)cc1 [Vatalanib (PTK787)]
1.3 fold	CCc1nc(C(N)=O)c(Nc2ccc(N3CCC(N4CCN(C)CC4)CC3)c(OC)c2)nc1NC1CCOCC1 [Gilteritinib (ASP-2215)]
959.3 fold	O=c1cc(-c2cccc3c2Sc2ccccc2S3)oc(N2CCOCC2)c1 [KU-55933]
193.3 fold and 170.6 fold	Cc1ccc(Nc2nccc(N(C)c3ccc4c(C)n(C)nc4c3)n2)cc1S(N)(=O)=O [Pazopanib (GW786034)]
0.16 fold	Cc1ccccc1C(C(=O)NC1CCCCC1)N(C(=O)Cn1ccnc1C)c1cccc(F)c1 (centres unmarked) [AGI-5198]

— article PMC6433232, “Targeting mitochondria in cancer therapy could provide a basis for the selective anti-cancer activity” (PLoS ONE, 2019)
